In this experiment the target is T1, human LPAR1 (Homo sapiens, UniProt Q92633).
T1 construct: expressed in transfected cells
T1 sequence (Q92633 whole entry): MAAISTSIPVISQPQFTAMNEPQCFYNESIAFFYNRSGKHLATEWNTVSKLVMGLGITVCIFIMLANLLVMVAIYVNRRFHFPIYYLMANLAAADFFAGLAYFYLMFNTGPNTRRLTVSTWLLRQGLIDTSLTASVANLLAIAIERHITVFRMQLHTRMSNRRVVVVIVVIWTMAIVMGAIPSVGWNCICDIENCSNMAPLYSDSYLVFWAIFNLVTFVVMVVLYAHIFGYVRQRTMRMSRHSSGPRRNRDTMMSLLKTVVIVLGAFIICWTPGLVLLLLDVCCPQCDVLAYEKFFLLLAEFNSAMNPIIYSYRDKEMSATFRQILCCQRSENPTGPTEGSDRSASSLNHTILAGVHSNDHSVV
As to the kind of experiment: Test Example 1: antagonism against response of LPA-induced increase in intracellular Ca2+ concentration in RH7777 cells stably expressing human LPAR1. Format: cell-based. To be noted: RH7777 cells stably expressing human LPAR1; Fluo-4 fluorescence, FDSS6000; read-out: IC50 value (concentration producing 50% antagonism against response of LPA-induced increase in intracellular Ca2+ concentration) (converted). A digest of the protocol:
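Ca2+ flux read at 540 nm emission (480 nm excitation) after LPA addition to human LPAR1-expressing RH7777 cells exposed to compound for 30 min, 37 °C, pH 7.4 HEPES-buffered HBSS. Response relative to no-compound control after basal subtraction; IC50 fitted from concentration–response.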
In the case of `CCOc1cc([C@@H](C)N(CCCCc2ccccc2)C(=O)NC2(C(=O)O)CN(C(C)=O)C2)cc(OCC)c1C` [Example 1-159, 1-Acetyl-3-({[(1R)-1-(3,5-Diethoxy-4-Methylphenyl)Ethyl](4-Phenylbutyl) Carbamoyl}Amino) Azetidine-3-Carboxylic Acid], the IC50 was 2.56 nM.

Take `COc1cc(OC)nc(C(C)N(CCCCc2ccccc2)C(=O)NC2(C(=O)O)CC(F)(F)C2)n1` (stereo not shown) [Example 5-87]: the IC50 was 195 nM.

For `COc1cc(C(C)N(CCO[C@@H](C)c2ccccc2)C(=O)NC2(C(=O)O)CC(F)(F)C2)c(C)c(OC)c1C` (stereo partly shown) [Example 5-151], the IC50 was 4.46 nM.

For `CCOc1cc(C(C)N(CCCCc2ccccc2)C(=O)NC2(C(=O)O)CC(F)(F)C2)cc(OCC)n1` (stereo not shown) [Example 5-86], the IC50 was 11 nM.

For `CCOc1cc([C@@H](C)N(CCO[C@@H](C)c2ccccc2)C(=O)NC2(C(=O)O)CC(F)(F)C2)cc(OCC)c1C(C)=O` [Example 4-117], the IC50 was 2.52 nM.

Take `CCOc1cc([C@@H](C)N(CCOCc2ccccc2)C(=O)NC2(C(=O)O)CC(OCC)C2)cc(OCC)c1C(C)=O` (stereo partly shown) [Example 4-109]: the IC50 was 1.59 nM.

Take `CCOc1cc([C@@H](C)N(CCCCc2ccccc2)C(=O)NC2(c3nnn[nH]3)CC(F)(F)C2)cc(OCC)c1C(C)O` (stereo partly drawn) [Example 10-9, N-{(1R)-1-[3,5-Diethoxy-4-(1-Hydroxyethyl)Phenyl]Ethyl}-N′-[3,3-Difluoro-1-(1H-Tetrazol-5-Yl)Cyclobutyl]-N-(4-Phenylbutyl) Urea]: the IC50 is 4.69 nM.

Take `CCOc1cc([C@@H](C)N(CCCCc2ccccc2)C(=O)N(C)C2(C(=O)O)CC(F)(F)C2)cc(OCC)c1C` [Example 2-1, 1-[{[(1R)-1-(3,5-Diethoxy-4-Methylphenyl)Ethyl](4-Phenylbutyl) Carbamoyl}(Methyl)Amino]-3,3-Difluorocyclobutane-1-Carboxylic Acid]: the IC50 is 608 nM.

Consider `CCOc1cc([C@@H](C)N(CCCCc2ccc(C)cc2)C(=O)NC2(C(=O)O)CC(F)(F)C2)cc(OCC)c1C` [Example 4-17], for which the IC50 was 9.68 nM.

As for `CCOc1cc([C@@H](C)N(CCCCc2ccccc2)C(=O)NC2(C(=O)O)CC(F)(F)C2)cc(OCC)c1C1CC1` [Example 1-46, Sodium 1-({[(1R)-1-(4-Cyclopropyl-3,5-Diethoxyphenyl)Ethyl](4-Phenylbutyl) Carbamoyl}Amino)-3,3-Difluorocyclobutane-1-Carboxylate], the IC50 was 1 nM.

On to `CCOc1cc([C@@H](C)N(CCO[C@@H](C)c2ccccc2)C(=O)N[C@]2(C(=O)O)C[C@@H](OCC)C2)c(Cl)c(OCC)c1C(C)O` (single isomer, unassigned) [Example 5-61], for which the IC50 is 3.17 nM.

For `CCOc1cc(CN(CCCCc2ccccc2)C(=O)NC2(C(=O)O)CCCC2)cc(OCC)c1C` [Example 3-2], the IC50 was 85.8 nM.

Turning to `CCOc1cc([C@@H](C)N(CCO[C@@H](C)c2ccccc2)C(=O)NC2(C(=O)O)CCC2)cc(OCC)c1C1CC1` [Example 4-115], the IC50 is 1.23 nM.

With `CCOc1cc([C@@H](C)N(CCCCc2ccccc2)C(=O)NC2(C(=O)O)CCCCCC2)cc(OCC)c1C` [Example 1-119], the IC50 is 53.6 nM.

As for `CCOc1c(C(C)=O)ccc([C@@H](C)N(CCO[C@H](C)c2ccccc2)C(=O)NC2(C(=O)O)CC2)c1C` [Example 4-147], the IC50 was 11.6 nM.

On to `COc1cc(C(C)N(CCOCc2ccccc2)C(=O)NC2(C(=O)O)CCOCC2)c(Cl)c(OC)c1C1CC1` (stereo not shown) [Example 5-175], for which the IC50 was 4.93 nM.

In the case of `COc1cc(C(C)N(CCO[C@@H](C)c2ccccc2)C(=O)NC2(C(=O)O)CCOCC2)c(C)c(OC)c1C1CC1` (stereo partly shown) [Example 5-181], the IC50 was 3.51 nM.

As to `CCOc1c(C(C)=O)ccc([C@@H](C)N(CCCC(F)(F)c2ccccc2)C(=O)N[C@]2(C(=O)O)C[C@@H](OC)C2)c1C` [Example 4-63], the IC50 is 3.94 nM.

Consider `CCOc1cc(C(C)N(CCOCc2ccccc2)C(=O)NC2(C(=O)O)CCC2)c(C)c(OCC)c1C(C)=O` (stereo not shown) [Example 5-191], for which the IC50 was 1.45 nM.

As for `CCOc1cc([C@@H](C)N(C(=O)NC2(C(=O)O)CC(F)(F)C2)C2CC(Cc3ccccc3)C2)cc(OCC)c1C` (stereo partly shown) [Example 4-43], the IC50 is 37.2 nM.

Take `CCOc1c(C(C)=O)ccc([C@@H](C)N(CCCCc2ccccc2)C(=O)NC2(C(=O)O)CC(OCC)C2)c1C` (stereo partly shown) [Example 1-102]: the IC50 was 2.03 nM.

With `CCOc1cc([C@@H](C)N(CCO[C@H](C)c2ccccc2)C(=O)NC2(C(=O)O)CCOCC2)c(Cl)c(OCC)c1C(C)=O` [Example 5-34], the IC50 was 4.18 nM.

Take `CCOc1cc(C(C)N(CCCCc2ccccc2)C(=O)NC2(C(=O)O)CC(F)(F)C2)cc(OCC)c1CC` (stereo not shown) [Example 1-47]: the IC50 was 2.71 nM.

Take `CCOc1cc([C@@H](C)N(CCCC(F)(F)c2ccccc2)C(=O)NC2(C(=O)O)CCOCC2)cc(OCC)c1C(C)O` (stereo partly shown) [Example 4-76]: the IC50 was 10.7 nM.

As for `CCOc1cc([C@@H](C)N(CCO[C@@H](C)c2ccccc2)C(=O)NC2(C(=O)O)CC(OC)C2)cc(OCC)c1C(C)O` (stereo partly shown) [Example 4-125], the IC50 is 7.11 nM.

For `CCOc1cncc(C(C)N(CCCCc2ccccc2)C(=O)NC2(C(=O)O)CC(F)(F)C2)c1` (stereo not shown) [Example 5-89], the IC50 was 55.3 nM.

`CCOc1cc([C@@H](C)N(CCC(F)(F)Cc2ccccc2)C(=O)NC2(C(=O)O)CC(OCC)C2)cc(OCC)c1C1CC1` (stereo partly shown) [Example 4-94]: the IC50 is 3.61 nM.

As to `CC(c1ccc2c(c1)OCCO2)N(CCCCc1ccccc1)C(=O)NC1(C(=O)O)CC(F)(F)C1` (stereo not shown) [Example 5-91], the IC50 is 711 nM.

For the compound `CCOc1cc([C@@H](C)N(CC(=O)NCc2ccccc2)C(=O)NC2(C(=O)O)CC(F)(F)C2)cc(OCC)c1C` [Example 4-163], the IC50 is 384 nM.

Consider `CCOc1cc(C(C)N(CCOCc2ccccc2)C(=O)NC2(C(=O)O)CC(OC)C2)c(Cl)c(OCC)c1C(C)=O` (stereo not shown) [Example 5-205], for which the IC50 is 2.74 nM.

Turning to `COc1cc(C(C)N(CCOCc2ccccc2)C(=O)NC2(C(=O)O)CCC2)c(C)c(OC)c1C(C)=O` (stereo not shown) [Example 5-134], the IC50 was 4.55 nM.

Turning to `CCOc1cc(OCC)cc([C@@H](C)N(CCCCc2ccccc2)C(=O)NC2(C(=O)O)Cc3ccccc3C2)c1` [Example 5-12], the IC50 was 45.4 nM.

Regarding `COc1cc([C@@H](C)N(CCO[C@@H](C)c2ccccc2)C(=O)NC2(C(=O)O)CC(OC)C2)cc(OC)c1C(C)=O` (stereo partly shown) [Example 5-122], the IC50 is 30.3 nM.

Regarding `CCOc1cc([C@@H](C)N(CCO[C@@H](C)c2ccccc2)C(=O)N[C@]2(C(=O)O)C[C@@H](OCC)C2)cc(OCC)c1C(C)=O` [Example 4-97, Trans-1-[([(1R)-1-(4-Acetyl-3,5-Diethoxyphenyl)Ethyl]{2-[(1S)-1-Phenylethoxy]Ethyl}Carbamoyl)Amino]-3-Ethoxycyclobutane-1-Carboxylic Acid], the IC50 is 3.63 nM.

With `CCOc1cc(C(C)N(CCOCc2ccccc2)C(=O)NC2(C(=O)O)CC(OC)C2)c(C)c(OCC)c1C1CC1` (stereo not shown) [Example 5-201], the IC50 is 0.712 nM.

As to `COc1cc(Br)cc(C(C)N(CCCCc2ccccc2)C(=O)NC2(C(=O)O)CC(F)(F)C2)c1` (stereo not shown) [Example 5-22], the IC50 is 7.13 nM.

As to `CCOc1cc([C@@H](C)N(CCCCc2ccccc2)C(=O)NC2(C(=O)O)CCOCC2)c(Cl)c(OCC)c1C(C)=O` [Example 5-51], the IC50 is 2.56 nM.

Take `CCOc1cc([C@@H](C)N(CCCCc2ccccc2)C(=O)N[C@H]2COC[C@H]2C(=O)O)cc(OCC)c1C(C)=O` [Example 1-162]: the IC50 is 3.92 nM.

In the case of `CCOc1cc([C@@H](C)N(CCO[C@@H](C)c2ccccc2)C(=O)NC2(C(=O)O)CC(OC)C2)cc(OCC)c1C1(O)CC1` (stereo partly shown) [Example 4-127], the IC50 is 21.3 nM.

Consider `CCOc1cc(C(C)N(CCOCc2ccccc2)C(=O)NC2(c3nn[nH]n3)CC(F)(F)C2)cc(OCC)c1C1CC1` (stereo not shown) [Example 10-13], for which the IC50 was 3.17 nM.

Take `CCOc1cc([C@@H](C)N(CCN2Cc3ccccc3C2)C(=O)NC2(C(=O)O)CC(F)(F)C2)cc(OCC)c1C` [Example 4-31]: the IC50 is 28.4 nM.

Consider `CCOc1cc([C@@H](C)N(CCOCc2ccccc2)C(=O)NC2(C(=O)O)CC(OC)C2)c(C)c(OCC)c1C(C)=O` (stereo partly shown) [Example 5-73], for which the IC50 was 1.42 nM.

On to `COc1cc(C(C)N(CCCCc2ccccc2)C(=O)NC2(C(=O)O)CC(F)(F)C2)nc(OC)n1` (stereo not shown) [Example 5-88], for which the IC50 was 43.1 nM.

For `CCOc1cc([C@@H](C)N(CCCCc2ccccc2)C(=O)NC2(C(=O)O)CCC2)cc(OCC)c1C` [Example 1-24], the IC50 was 3.54 nM.

Turning to `CCOc1cc([C@@H](C)N(CCO[C@@H](C)c2ccccc2)C(=O)NC2(C(=O)O)CC(OCC)C2)cc(OCC)c1C(C)=O` (stereo partly shown) [Example 4-132], the IC50 was 5.62 nM.

As to `CCOc1cc([C@@H](C)N(CCCC(F)(F)c2ccccc2)C(=O)NC2(C(=O)O)CCOCC2)cc(OCC)c1C1CC1` [Example 4-75], the IC50 is 0.992 nM.

As to `CCOc1cc(C(C)N(CCOCc2ccccc2)C(=O)NC2(C(=O)O)CC(OC)C2)cc(OCC)c1C1CC1` (stereo not shown) [Example 5-199], the IC50 is 0.761 nM.

On to `CCOc1cc(C(C)N(CCOCc2ccccc2)C(=O)NC2(C(=O)O)CC(OC)C2)c(Cl)c(OCC)c1C1CC1` (stereo not shown) [Example 5-206], for which the IC50 is 0.853 nM.

Regarding `COc1cc(C(C)N(CCOCc2ccccc2)C(=O)NC2(C(=O)O)CCOCC2)cc(OC)c1C1CC1` (stereo not shown) [Example 5-173], the IC50 is 34.7 nM.

With `CCOc1cc(C(C)N(CCCCc2ccccc2)C(=O)NC2(C(=O)O)CC(F)(F)C2)cc(OCC)c1C(=O)NC` (stereo not shown) [Example 1-61], the IC50 is 103 nM.

For the compound `CCOc1c(C2CC2)ccc([C@@H](C)N(CCOC(C)c2ccccc2)C(=O)NC2(C(=O)O)CC(F)(F)C2)c1C` (stereo partly shown) [Example 4-167], the IC50 was 2.5 nM.

`CCOc1cc(C(C)N(CCCCc2ccccc2)C(=O)NC2(C(=O)O)CC(F)(F)C2)cc(OCC)c1CO` (stereo not shown) [Example 1-50, 1-{[{1-[3,5-Diethoxy-4-(Hydroxymethyl)Phenyl]Ethyl}(4-Phenylbutyl) Carbamoyl]Amino}-3,3-Difluorocyclobutane-1-Carboxylic Acid]: the IC50 was 3.68 nM.

(Values after US12338203B2 (TAISHO PHARMACEUTICAL CO., LTD., priority 2019, dated 2025).)
